From paper PMC11120408 (Foods, 2024)

Tests used:
Type in all cases: biochemical, bovine
[1] = target: T1, BSA–fructose (Fru) system (Bos taurus, UniProt P02769); experiment: Surface hydrophobicity of glycated BSA (BPB, ANS)
[2] = target: T1, BSA–fructose (Fru) system; experiment: Anti-glycation: glycation products in BSA–Fru system; conditions: 0.200 mg mL^−1; end stage
Protocol: Considering that Monascus pigments (MPs) are usually applied in the form of a mixture, the extract of Monascus-fermented rice (a high content of six known Monascus pigments, Figure S2) was selected to evaluate the anti-glycation capacity of MPs in a reaction in vitro using BSA as a model protein glycation by Fru. Briefly, BSA and Fru were dissolved in PBS solution of pH 7.4, and their final concentrations were 10.0 mg mL^−1 and 0.5 M, respectively. Then, a series of MPs were added into the above system with final concentrations of 0.005, 0.025, 0.050, 0.100, 0.150, and 0.200 mg mL^−1. After filtered through a sterile 0.22 μm membrane, the reaction mixture was incubated at 323 K for 24 h. The glycosylation products, namely fructosamine (in the early stage), α-dicarbonyl compounds (in the middle stage), and fluorescent AGEs (in the end stage), were detected according to our previous report. Here, AG was a positive control.

[3] = target: T1, BSA–fructose (Fru) system; experiment: Total carbonyl and thiol group content of glycated BSA; conditions: 0.200 mg mL^−1
Protocol: A reported method was adopted and a slight modification was made to determine the protein carbonyl group content (PCO). Briefly, 100 μL of native BSA solution or sample solution acquired in Section 2.4.1 was incubated with DNPH solution (400 μL, 10 mM, dissolved in 2.0 M HCl) for 1 h at room temperature, with vortexing every 10 min. The sample solution without DNPH was regarded as the blank group. Then, 1000 μL of trichloroacetic acid (TCA) solution (20% (w/v)) was added, and the resulting mixture was kept at 277 K for 10 min, followed by centrifugation (10,000 rpm, 10 min, 277 K). The residue was extracted with ethanol/ethyl acetate (1:1, v/v) three times, and subsequently suspended and mixed thoroughly in 1000 μL of guanidine hydrochloride (6.0 M, pH 6.6), followed by incubating at 310 K for 15 min. The UV absorbance was recorded at 370 nm on an Infinite® M200 PRO plate reader (Tecan, Männedorf, Switzerland). The total protein carbonyl group content was calculated using the following equation:(4) PCO(nmol/mg protein)=Asample−AblankVreaction/ε1dVsampleCpro×1000 where Asample and Ablank are the absorbances of a tested sample with or without DNPH, respectively. ε1 represents the absorption coefficient of 22,000 M^−1cm^−1, and d is the cuvette length (0.5 cm). […]
The content of the free SH group was assessed using Ellman’s method with slight changes. […]

[4] = target: T1, BSA–fructose (Fru) system; experiment: Structural analysis of glycated BSA (CD, ThT cross-β structure)
Protocol: The changes in the secondary structures of the proteins were determined using the CD spectroscopy method on a New MOS-450 spectropolarimeter (Biologic, Seyssinet-Pariset, France). The spectra were collected over the far-UV range of 200–260 nm using a quartz cell (with an inner diameter of 1 mm) under an atmosphere of nitrogen at room temperature. Each spectrum was the average of at least three consecutive scans at a scan speed of 100 nm min^−1 with a bandwidth of 1 nm, and it was corrected for the buffer signal. The proportion of different secondary structures was calculated using the online CONTIN program (http://dichroweb.cryst.bbk.ac.uk/html/home.shtml, accessed on 4 April 2023).
The secondary structure contents of BSA before and after glycosylation were determined using CD measurement referring to the experimental procedure in Section 2.3.2.
As a popular fluorescent probe for protein aggregation, thioflavin T (ThT) was used for the detection of the amyloid β-structure of glycated BSA [29, 30]. The samples were treated with ThT (a final concentration of 0.016 mg mL^−1) at room temperature for 1 h in the dark. The ThT fluorescence intensity (excitation: 435 nm; emission: 485 nm) of the sample was recorded on a spectrofluorometer.

T1 sequence (P02769 25-607): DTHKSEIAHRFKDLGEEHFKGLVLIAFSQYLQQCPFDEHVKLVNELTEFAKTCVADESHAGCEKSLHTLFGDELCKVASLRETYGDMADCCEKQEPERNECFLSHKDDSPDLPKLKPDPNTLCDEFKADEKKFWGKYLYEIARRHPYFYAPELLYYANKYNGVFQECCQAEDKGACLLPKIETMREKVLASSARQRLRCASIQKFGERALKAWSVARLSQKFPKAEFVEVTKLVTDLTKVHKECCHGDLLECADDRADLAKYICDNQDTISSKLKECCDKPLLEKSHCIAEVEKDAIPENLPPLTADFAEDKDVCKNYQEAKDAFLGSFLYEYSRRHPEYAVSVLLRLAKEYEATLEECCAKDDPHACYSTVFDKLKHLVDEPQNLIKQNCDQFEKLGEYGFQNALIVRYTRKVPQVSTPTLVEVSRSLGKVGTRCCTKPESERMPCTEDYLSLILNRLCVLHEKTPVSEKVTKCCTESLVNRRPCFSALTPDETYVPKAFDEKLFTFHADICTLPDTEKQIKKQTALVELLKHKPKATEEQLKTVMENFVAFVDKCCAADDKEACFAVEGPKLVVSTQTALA

N=C(N)NN [AG, aminoguanidine]
change of ANS fluorescence intensity of glycated BSA ([1]; ANS binding): increased slightly | change of BPB content bound to glycated BSA (surface hydrophobicity) ([1]; BPB binding): increased | inhibition rate of fluorescent AGE formation [2]: 75.7% | free SH group content of glycated BSA after treatment ([3]; glycated BSA 2.3, native BSA 3.6): 2.7 µmol/g | carbonyl group content of glycated BSA after treatment ([3]; glycated BSA 35.6, native BSA 2.5): 15.7 nmol/mg | inhibition rate against generation of cross-β structure (ThT) ([4]; 0.005 mg mL^−1): 27.6% | inhibition rate against generation of cross-β structure (ThT) ([4]; 0.200 mg mL^−1): 41.4% | α-helical structure content of treated glycated BSA (CD) ([4]; glycated BSA 47.8%, native BSA 67.6%): 58.3%
